Results reported in BigSolDB 2.1.

CC(=O)N1CCC[C@H]1C(=O)O
solubility (mole fraction)
Settings | 283.15 K | 288.15 K | 293.15 K | 298.15 K | 303.15 K | 313.15 K | 323.15 K
in 1,4-dioxane | – | 0.0237 | 0.0291 | – | 0.0416 | 0.0673 | 0.13
in 2-butanone | 0.0113 | – | 0.0161 | – | 0.0237 | 0.0339 | 0.0553
in acetone | 0.0158 | – | 0.0247 | – | 0.0348 | 0.0484 | 0.0673
in acetonitrile | 0.0159 | – | 0.0335 | – | 0.0558 | 0.131 | 0.255
in dichloromethane | 0.0336 | 0.0448 | 0.0609 | 0.0785 | 0.0974 | – | –
in ethanol | 0.0754 | – | 0.111 | – | 0.156 | 0.219 | 0.278
in ethyl acetate | 0.00368 | – | 0.00634 | – | 0.0096 | 0.0133 | 0.0201
in isobutanol | 0.0448 | – | 0.0643 | – | 0.106 | 0.146 | 0.2
in isopropanol | 0.0448 | – | 0.0732 | – | 0.099 | 0.143 | 0.177
in methanol | 0.122 | – | 0.166 | – | 0.21 | 0.291 | 0.406
in methyl acetate | 0.00602 | – | 0.00997 | – | 0.0147 | 0.0213 | 0.0322
in n-butanol | 0.0412 | – | 0.059 | – | 0.0877 | 0.133 | 0.199
in n-pentanol | 0.0377 | – | 0.0532 | – | 0.075 | 0.111 | 0.158
in n-propanol | 0.0961 | – | 0.14 | – | 0.195 | 0.267 | 0.334
in sec-butanol | 0.0429 | – | 0.062 | – | 0.0915 | 0.132 | 0.189
in water | 0.0127 | – | 0.0188 | – | 0.0269 | 0.042 | 0.0738
